Test results: BigSolDB 2.1

CN(Cc1ccccc1)CN1C(=O)C(=NNC(=O)c2ccccc2OCc2ccccc2)c2ccccc21
Settings	solubility (mole fraction)
in PEG-400, 298.15 K	0.007
in PEG-400, 303.15 K	0.00778
in PEG-400, 308.15 K	0.00883
in PEG-400, 313.15 K	0.00988
in PEG-400, 318.15 K	0.0113

in water
Settings	solubility (mole fraction)
298.15 K	1.07e-06
303.15 K	1.48e-06
308.15 K	1.89e-06
313.15 K	2.39e-06
318.15 K	2.97e-06
